The source made the active and inactive calls. The rule behind the calls is not given here.
System: CCRIS mutagenicity, Ames/micronucleus/aberration tests
Test: CCRIS mutagenicity studies
[1] = Test System: AMES SALMONELLA TYPHIMURIUM, Strain/Indicator: TA98, Metabolic Activation: NONE, Method: STANDARD PLATE
[2] = Test System: AMES SALMONELLA TYPHIMURIUM, Strain/Indicator: TA100, Metabolic Activation: NONE, Method: STANDARD PLATE
[3] = Test System: AMES SALMONELLA TYPHIMURIUM, Strain/Indicator: TA97, Metabolic Activation: NONE, Method: STANDARD PLATE
[4] = Test System: CHINESE HAMSTER V-79, Strain/Indicator: V-79/8-AZAGUANINE, Metabolic Activation: NONE, Method: STANDARD PLATE
[5] = Test System: AMES SALMONELLA TYPHIMURIUM, Strain/Indicator: TA100, Metabolic Activation: NONE, Method: PREINCUBATION
[6] = Test System: AMES SALMONELLA TYPHIMURIUM, Strain/Indicator: TA98, Metabolic Activation: NONE, Method: PREINCUBATION

With `CCCCN[N+](=O)[O-]` the mutagenic call (Test System: E. COLI, Strain/Indicator: WP2 (HCR-), Metabolic Activation: NONE) was “active; positive”.
With `Cc1cc(N=Nc2ccccc2)c(N)cc1N` the mutagenic call (Test System: AMES SALMONELLA TYPHIMURIUM, Strain/Indicator: TA100, Metabolic Activation: HUMAN, LIVER, S-9, Method: PREINCUBATION) was “inactive; negative”, the mutagenic call (Test System: AMES SALMONELLA TYPHIMURIUM, Strain/Indicator: TA100, Metabolic Activation: RAT, LIVER, HEPATOCYTES, Method: PREINCUBATION) was “inactive; negative” and the mutagenic call (Test System: AMES SALMONELLA TYPHIMURIUM, Strain/Indicator: TA100, Metabolic Activation: RAT, LIVER, S-9, BETA-NAPHTHOFLAVONE, Method: PREINCUBATION) was “active; positive”. The mutagenic call (Test System: AMES SALMONELLA TYPHIMURIUM, Strain/Indicator: TA100, Metabolic Activation: RAT, LIVER, S-9, PHENOBARBITAL, Method: PREINCUBATION) was “active; positive”, the mutagenic call (Test System: AMES SALMONELLA TYPHIMURIUM, Strain/Indicator: TA100, Metabolic Activation: RAT, LIVER, S-9, Method: PREINCUBATION) was “active; positive” and the mutagenic call (Test System: UDS RODENT HEPATOCYTES, Strain/Indicator: THY INCORP, Metabolic Activation: NONE, Method: AUTORADIOGRAPHY) was “active; positive”.
`O=[N+]([O-])c1c2c(c3ccc4cccc5ccc1c3c45)CCCC2` was tested, and the mutagenic call [1] was “inactive; negative” and the mutagenic call [2] was “inactive; negative”.
In the case of `O=C(O)C1Cc2c([nH]c3ccccc23)C(CO)N1` (centres undefined), the mutagenic call [3] is reported as “inactive; negative”, the mutagenic call (Test System: AMES SALMONELLA TYPHIMURIUM, Strain/Indicator: TA97, Metabolic Activation: RAT, LIVER, S-9, AROCLOR 1254, Method: STANDARD PLATE) is reported as “inactive; negative” and the mutagenic call [1] is reported as “inactive; negative”. The mutagenic call (Test System: AMES SALMONELLA TYPHIMURIUM, Strain/Indicator: TA98, Metabolic Activation: RAT, LIVER, S-9, AROCLOR 1254, Method: STANDARD PLATE) was “inactive; negative”, the mutagenic call [2] was “inactive; negative” and the mutagenic call (Test System: AMES SALMONELLA TYPHIMURIUM, Strain/Indicator: TA100, Metabolic Activation: RAT, LIVER, S-9, AROCLOR 1254, Method: STANDARD PLATE) was “inactive; negative”.
For `Cc1ccc2c(c1)-c1cc3ccccc3c3cc4ccccc4c-2c13`, the mutagenic call (Test System: AMES SALMONELLA TYPHIMURIUM, Strain/Indicator: TA100, Metabolic Activation: RAT, LIVER, S-9, 3-METHYLCHOLANTHRENE, Method: STANDARD PLATE) was “active; positive”.
With `c1cc2ccc3cc4c(c5ccc(c1)c2c35)[C@H]1O[C@H]1CC4` the mutagenic call [4] was “active; positive”.
`CC12OOC1(COC(=O)Nc1ccc(Cl)cc1)Oc1ccccc12` (centres undefined) was tested, and the mutagenic call [5] was “active; positive”.
For `Cl`, the mutagenic call (End Point: IN VITRO CHROMOSOMAL ABERRATIONS, Test System: CHO-WBL CELLS, Metabolic Activation: NONE) was “active; positive (structural changes); osmolality of solution decisive factor”, the mutagenic call (Test System: AMES SALMONELLA TYPHIMURIUM, Strain/Indicator: TA97, Metabolic Activation: NONE, Method: PREINCUBATION) was “inactive; negative” and the mutagenic call [3] was “inactive; negative”. The mutagenic call (Test System: AMES SALMONELLA TYPHIMURIUM, Strain/Indicator: TA97, Metabolic Activation: RAT, LIVER, S-9, AROCLOR 1254, Method: PREINCUBATION) was “inactive; negative”, the mutagenic call (Test System: AMES SALMONELLA TYPHIMURIUM, Strain/Indicator: TA97, Metabolic Activation: RAT, LIVER, S-9, PHENOBARBITAL, Method: STANDARD PLATE) was “inactive; negative” and the mutagenic call [6] was “inactive; negative”. The mutagenic call [1] was “inactive; negative”, the mutagenic call (Test System: AMES SALMONELLA TYPHIMURIUM, Strain/Indicator: TA98, Metabolic Activation: RAT, LIVER, S-9, KC 500, Method: PREINCUBATION) was “inactive; negative” and the mutagenic call (Test System: AMES SALMONELLA TYPHIMURIUM, Strain/Indicator: TA98, Metabolic Activation: RAT, LIVER, S-9, PHENOBARBITAL, Method: STANDARD PLATE) was “inactive; negative”. For the same molecule, the mutagenic call [5] was “inactive; negative”, the mutagenic call [2] was “inactive; negative” and the mutagenic call (Test System: AMES SALMONELLA TYPHIMURIUM, Strain/Indicator: TA100, Metabolic Activation: RAT, LIVER, S-9, KC 500, Method: PREINCUBATION) was “inactive; negative”. The mutagenic call (Test System: AMES SALMONELLA TYPHIMURIUM, Strain/Indicator: TA100, Metabolic Activation: RAT, LIVER, S-9, PHENOBARBITAL, Method: STANDARD PLATE) was “inactive; negative”, the mutagenic call (Test System: AMES SALMONELLA TYPHIMURIUM, Strain/Indicator: TA102, Metabolic Activation: NONE, Method: PREINCUBATION) was “inactive; negative” and the mutagenic call (Test System: AMES SALMONELLA TYPHIMURIUM, Strain/Indicator: TA102, Metabolic Activation: RAT, LIVER, S-9, AROCLOR 1254, Method: PREINCUBATION) was “inactive; negative”. For the same molecule, the mutagenic call (Test System: AMES SALMONELLA TYPHIMURIUM, Strain/Indicator: TA1535, Metabolic Activation: NONE, Method: PREINCUBATION) was “inactive; negative”, the mutagenic call (Test System: AMES SALMONELLA TYPHIMURIUM, Strain/Indicator: TA1535, Metabolic Activation: NONE, Method: STANDARD PLATE) was “inactive; negative” and the mutagenic call (Test System: AMES SALMONELLA TYPHIMURIUM, Strain/Indicator: TA1535, Metabolic Activation: RAT, LIVER, S-9, KC 500, Method: PREINCUBATION) was “inactive; negative”. The mutagenic call (Test System: AMES SALMONELLA TYPHIMURIUM, Strain/Indicator: TA1535, Metabolic Activation: RAT, LIVER, S-9, PHENOBARBITAL, Method: STANDARD PLATE) was “inactive; negative”, the mutagenic call (Test System: AMES SALMONELLA TYPHIMURIUM, Strain/Indicator: TA1537, Metabolic Activation: NONE, Method: PREINCUBATION) was “inactive; negative” and the mutagenic call (Test System: AMES SALMONELLA TYPHIMURIUM, Strain/Indicator: TA1537, Metabolic Activation: NONE, Method: STANDARD PLATE) was “inactive; negative”. For the same molecule, the mutagenic call (Test System: AMES SALMONELLA TYPHIMURIUM, Strain/Indicator: TA1537, Metabolic Activation: RAT, LIVER, S-9, KC 500, Method: PREINCUBATION) was “inactive; negative”, the mutagenic call (Test System: AMES SALMONELLA TYPHIMURIUM, Strain/Indicator: TA1537, Metabolic Activation: RAT, LIVER, S-9, PHENOBARBITAL, Method: STANDARD PLATE) was “inactive; negative” and the mutagenic call (Test System: AMES SALMONELLA TYPHIMURIUM, Strain/Indicator: TA1538, Metabolic Activation: NONE, Method: PREINCUBATION) was “inactive; negative”. The mutagenic call (Test System: AMES SALMONELLA TYPHIMURIUM, Strain/Indicator: TA1538, Metabolic Activation: NONE, Method: STANDARD PLATE) was “inactive; negative”, the mutagenic call (Test System: AMES SALMONELLA TYPHIMURIUM, Strain/Indicator: TA1538, Metabolic Activation: RAT, LIVER, S-9, KC 500, Method: PREINCUBATION) was “inactive; negative” and the mutagenic call (Test System: AMES SALMONELLA TYPHIMURIUM, Strain/Indicator: TA1538, Metabolic Activation: RAT, LIVER, S-9, PHENOBARBITAL, Method: STANDARD PLATE) was “inactive; negative”. For the same molecule, the mutagenic call (Test System: E. COLI, Strain/Indicator: WP2 UVRA, Metabolic Activation: NONE, Method: PREINCUBATION) was “inactive; negative”, the mutagenic call (Test System: E. COLI, Strain/Indicator: WP2 UVRA, Metabolic Activation: NONE, Method: SPOT TEST) was “inactive; negative” and the mutagenic call (Test System: E. COLI, Strain/Indicator: WP2 UVRA, Metabolic Activation: RAT, LIVER, S-9, KC 500, Method: PREINCUBATION) was “inactive; negative”. For the same molecule, the mutagenic call (Test System: MOUSE LYMPHOMA, Strain/Indicator: L5178Y (TK+/TK-), Metabolic Activation: NONE, Method: SUSPENSION/PLATE) was “inactive; negative”, the mutagenic call (Test System: MOUSE LYMPHOMA, Strain/Indicator: L5178Y (TK+/TK-), Metabolic Activation: RAT, LIVER, S-9, AROCLOR 1254, Method: SUSPENSION/PLATE) was “active; positive” and the mutagenic call (Test System: MOUSE LYMPHOMA, Strain/Indicator: L5178Y (TK+/TK-), Metabolic Activation: RAT, LIVER, S-9, Method: SUSPENSION/PLATE) was “active; positive”.
In the case of `O[C@H]1[C@@H]2O[C@@H]2c2c(ccc3cc4ccc5ccccc5c4nc23)[C@@H]1O`, the mutagenic call [6] is reported as “active; positive”, the mutagenic call [5] is reported as “active; positive” and the mutagenic call [4] is reported as “active; positive”.

Source: PubChem BioAssay AID1259407 (Chemical Carcinogenesis Research Information System (CCRIS), 2018)
